Assays:
Ex1Q48-CyPet/-YPet = assay: FRASE assay: effect of added preformed fibrils/seeds on Ex1Q48-CyPet/-YPet polymerization; format: biochemical, human; settings: non-polyQ fibrillar aggregates produced in vitro; sensor 1:1 mixture, total conc. 1.2 μM
Method: (B) Effects of small, preformed Ex1Q48 seeds (1250 kDa) on Ex1Q48-CyPet and -YPet (1:1 mixture, total conc. 1.2 μM) co-aggregation. Data are mean±SEM (n=5).
(D) Effects of non-polyQ fibrils on Ex1Q48-CyPet and -YPet (1:1 mixture, total conc. 1.2 μM) co-aggregation. Data are mean±SD of triplicates.
Spontaneous Ex1Q48 aggregation was initiated by addition of 14 U PreScission protease (GE Healthcare) per nmol purified GST-Ex1Q48 fusion protein (2 μM). The aggregation reaction was performed in 50 mM Tris-HCl pH 7.4, 150 mM NaCl, 1 mM EDTA and 1 mM DTT at 25° C. and constant agitation (450 rpm) for 24 h. […] K2Q48P6 protein for seeding experiments was prepared from GST-K2Q48P6 fusion protein using the same protocol. ΔN17Q48+6PRD protein for seeding experiments was prepared from GST-ΔN17Q48+6PRD fusion protein using the same protocol. ΔN17Q40+6PRD protein for seeding experiments was prepared from GST-ΔN17Q40+6PRD fusion protein using the same protocol. Synthetic human IAPP was aggregated as described previously (Gao et al., 2015). Lyophilized α-Syn was dissolved in PBS at 500 μM and centrifuged (4° C., 265.000×g) after a 5 min sonication step to remove aggregated material. The supernatant was incubated for 7 d at 37° C. under constant shaking in the presence of a single glass bead. Tau40 was aggregated for 6 d at 37° C. under constant shaking in 100 mM sodium acetate, pH 7.4, and 1 mM DTT in the presence of heparin. Synthetic human Δβ1-42 was dissolved in 100 mM NaOH and diluted to 200 μM in low salt buffer (10 mM K3PO4, pH 7.4, 10 mM NaCl). Aggregation was performed for 6 h at 37° C. under constant agitation.
(§1) Purified GST-Ex1Q48-CyPet and GST-Ex1Q48-YPet were diluted in aggregation buffer at an equimolar ratio to a final concentration of 1.2 μM (0.6 μM each) with 14 U PSP per nmol sensor proteins if not stated otherwise. […] For quantification of seeding-competent HTT species in tissue samples, the sensor-protein mixture was supplemented with up to 10% (v/v) tissue homogenate. Fluorescence signals were measured every 20 min following a 5 s pulse of vertical shaking with a Tecan M200 fluorescence plate reader at 25° C. for up to 48 h. CyPet donor fluorescence was measured at excitation (Ex): 435 nm/emission (Em): 475 nm; YPet acceptor fluorescence at Ex: 500 nm/Em: 530 nm; the FRET channel (DA) was recorded at Ex: 435 nm/Em: 530 nm. Raw signals were processed by subtracting the background fluorescence of unlabeled Ex1Q48 in all channels. […] In brief, the FRET efficiency E (in %) was calculated as follows: E=(DA-cDxDD-cAxAA)/AA with DD=donor channel signal and AA=acceptor channel signal.
Seeding effects (Δt50 [h]) were quantified by subtracting the t50 values (time at half-maximal FRET efficiency) of the respective sample from the negative control. […]

sensor proteins = assay: Sensor protein aggregation in the presence of compound but in the absence of HTTex1Q48 seeds; format: biochemical, human; settings: compound present, no HTTex1Q48 seeds; residual concentration
Method: Purified GST-Ex1Q48-CyPet and GST-Ex1Q48-YPet were diluted in aggregation buffer at an equimolar ratio to a final concentration of 1.2 μM (0.6 μM each) with 14 U PSP per nmol sensor proteins if not stated otherwise. The solution was then mixed with preformed aggregates of Ex1Q48 (seeds) at varying concentrations with or without prior sonication and transferred to a black 384-well plate (with a final reaction volume of 30 μl per well and a sensor protein concentration of 1.2 μM). For quantification of seeding-competent HTT species in tissue samples, the sensor-protein mixture was supplemented with up to 10% (v/v) tissue homogenate. Fluorescence signals were measured every 20 min following a 5 s pulse of vertical shaking with a Tecan M200 fluorescence plate reader at 25° C. for up to 48 h. CyPet donor fluorescence was measured at excitation (Ex): 435 nm/emission (Em): 475 nm; YPet acceptor fluorescence at Ex: 500 nm/Em: 530 nm; the FRET channel (DA) was recorded at Ex: 435 nm/Em: 530 nm. Raw signals were processed by subtracting the background fluorescence of unlabeled Ex1Q48 in all channels. […] In brief, the FRET efficiency E (in %) was calculated as follows: E=(DA-cDxDD-cAxAA)/AA with DD=donor channel signal and AA=acceptor channel signal. […]

HTTex1Q48 = HTTex1Q48 (Homo sapiens, UniProt P42858, INS38QQQQQQQQQQQQQQQQQQQQQQQQQQQ/P65L/V80A); settings: previously shown (Wagner et al., 2018); cited from earlier work
HTTex1Q48, sequence (P42858 with tags, fused parts or gaps with the stated changes): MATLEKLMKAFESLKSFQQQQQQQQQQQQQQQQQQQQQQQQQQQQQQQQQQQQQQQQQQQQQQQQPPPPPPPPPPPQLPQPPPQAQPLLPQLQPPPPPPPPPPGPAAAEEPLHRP

HTTex1Q48 seeds = target: T1, HTTex1Q48 seeds (Homo sapiens, UniProt P42858, INS38QQQQQQQQQQQQQQQQQQQQQQQQQQQ/P65L/V80A); assay: FRASE assay of HTTex1Q48 seeds pre-incubated with compound; format: biochemical; settings: preformed, sonicated HTTex1Q48 aggregates incubated with compound in 200-fold molar excess at 25° C. for 20 hours; compared to seeds incubated with DMSO
T1 construct: GST (N, cleaved yes); made in house; host or cells: E. coli BL21-CodonPlus-RP
T1 sequence (P42858 with tags, fused parts or gaps with the stated changes): as the sequence (P42858 with tags, fused parts or gaps with the stated changes) above
Method: Httex1Q48 seeds were pre-incubated with 04 in 200-fold molar excess at 25° C. for 20 h and subsequently analyzed for their seeding activity using FRASE assays. (A) Aggregation profiles of sensor proteins in the presence or absence of O4 treated seeds and respective controls. Data are mean±SD of technical triplicates.
as §1, with “signal. […]” for “signal.”

Compound | influence on Ex1Q48-CyPet/-YPet polymerization (Ex1Q48-CyPet/-YPet) | effect on sensor protein aggregation (sensor proteins) | interference with the aggregation of HTTex1Q48 (HTTex1Q48) | HTTex1Q48 seeding activity (HSA, Δt50) after pre-incubation of seeds (HTTex1Q48 seeds)
amyloid-β: synthetic human Aβ1-42 aggregated in vitro | did not significantly influence | – | – | –
tau: recombinant Tau40 protein aggregated in the presence of heparin | did not significantly influence | – | – | –
O=c1cc2oc3cc(O)c(-c4ccc(O)cc4O)cc3nc-2cc1-c1ccc(O)cc1O [O4] | – | no significant effect | interfere with the aggregation | strongly reduces
IAPP: synthetic human islet amyloid polypeptide aggregated in vitro (KCNTATCATQRLANFLVHSSNNFGAILSSTNVGSNTY) | did not significantly influence | – | – | –
α-synuclein | did not significantly influence | – | – | –

Source: US12287344B2, “Fret-based method to measure seeding activity of misfolded protein species in biological samples” (MAX-DELBRÜCK-CENTRUM FÜR MOLEKULARE MEDIZIN IN DER …, priority 2018, dated 2025)
